Assay results from patent US20260027068A1, “METHODS OF ADM[…]-KETAMINE” (Perception Neuroscience, Inc., priority 2022, published 2026).

Test system: subjects with TRD
Assay: Adverse events (TEAEs, SAEs) in the TRD study
Type: in vivo, human
Settings: 60 mg (n = 35)
Text: The definitions of an AE and SAE can be found in Section F. AEs were reported by the subject (or, when appropriate, by a caregiver, surrogate, or the subject's legally authorized representative). The Investigator and any designees were responsible for detecting, documenting, and recording events that meet the definition of an AE or SAE and remained responsible for following up AEs that were serious, considered related to the study treatment or study procedures, or that caused the subject to discontinue from the study.
All AEs were collected from the signing of the ICF until the second follow-up visit (Day 15) at the time points specified in the Schedule of Activities (Section C). Medical occurrences that began before the start of study treatment but after obtaining informed consent were recorded on the Medical History/Current Medical Conditions section of the CRF, not the AE section. All SAEs were recorded and reported to the Sponsor or designee within 24 hours as indicated in Section F. The Investigator submitted any updated SAE data to the Sponsor or designee within 24 hours of it being available. Investigators were not obligated to actively seek AE or SAE information after the conclusion of study participation. However, if the Investigator learns of any SAE, including a death, at any time after a subject has been discharged from the study, and he/she considers the event to be reasonably related to the study treatment or study participation, the Investigator must promptly notify the Sponsor or designee. The method of recording, evaluating, and assessing the causality of AEs and SAEs and the procedures for completing and transmitting SAE reports are provided in Section F.
An AE is any untoward medical occurrence in a patient or subject, temporally associated with the use of study treatment, whether or not considered related to the study treatment. An AE can therefore be any unfavorable and unintended sign (including an abnormal laboratory finding), symptom, or disease (new or exacerbated) temporally associated with the use of study treatment.
If an event is not an AE per the definition above, then it cannot be an SAE even if serious conditions are met (e.g., hospitalization for signs/symptoms of the disease under study). A Serious Adverse Event (SAE) is defined as any untoward medical occurrence that, at any dose: a) results in death; b) is life-threatening; c) requires inpatient hospitalization or prolongation of existing hospitalization; d) results in persistent disability/incapacity; or e) is a congenital anomaly/birth defect. The term “life-threatening” in the definition of “serious” refers to an event in which the subject was at risk of death at the time of the event. […] In general, hospitalization signifies that the subject has been detained (usually involving at least an overnight stay) at the hospital or emergency ward for observation and/or treatment that would not have been appropriate in the physician's office or outpatient setting. Complications that occur during hospitalization are AEs. If a complication prolongs hospitalization or fulfills any other serious criteria, the event is serious. When in doubt as to whether “hospitalization” occurred or was necessary, the AE should be considered serious. […] The term disability means a substantial disruption of a person's ability to conduct normal life functions.
(MedDRA; Version 23.0 or higher). Treatment-emergent adverse events (TEAEs) are AEs with onset or worsening after the start of study treatment. The AE summaries will be primarily based on TEAEs. The number and percentage of subjects with TEAEs will be summarized by treatment group, system organ class, and preferred term for all TEAEs, treatment-related TEAEs, SAEs, serious TEAEs, severe TEAEs, TEAEs of special interest, and all TEAEs leading to study drug discontinuation. All TEAEs will be further summarized by maximum severity and causality. The TEAEs of special interest will be identified in the SAP. […]

CN[C@@]1(c2ccccc2Cl)CCCCC1=O [PCN 101]
Number of subjects with any treatment-emergent adverse events: 18 | Number of treatment-emergent adverse events: 53 | Subjects with any treatment-emergent adverse events: (%) of subjects: (51) | TEAE PT Alopecia: (%) of subjects: (3) | TEAE PT Alopecia: number of subjects: 1 | TEAE PT Aversion: (%) of subjects: (0) | TEAE PT Aversion: number of subjects: 0 | TEAE PT Balance disorder: (%) of subjects: (0) | TEAE PT Balance disorder: number of subjects: 0 | TEAE PT Blood pressure increased: (%) of subjects: (3) | TEAE PT Blood pressure increased: number of subjects: 1 | TEAE PT Bruxism: (%) of subjects: (0) | TEAE PT Bruxism: number of subjects: 0 | TEAE PT Confusional state: (%) of subjects: (3) | TEAE PT Confusional state: number of subjects: 1 | TEAE PT Defect conduction intraventricular: (%) of subjects: (3) | TEAE PT Defect conduction intraventricular: number of subjects: 1 | TEAE PT Derealisation: (%) of subjects: (9) | TEAE PT Derealisation: number of subjects: 3 | TEAE PT Diarrhoea: (%) of subjects: (0) | TEAE PT Diarrhoea: number of subjects: 0 | TEAE PT Dissociation: (%) of subjects: (0) | TEAE PT Dissociation: number of subjects: 0 | TEAE PT Dizziness: (%) of subjects: (20) | TEAE PT Dizziness: number of subjects: 7 | TEAE PT Dry mouth: (%) of subjects: (3) | TEAE PT Dry mouth: number of subjects: 1 | TEAE PT Dysarthria: (%) of subjects: (6) | TEAE PT Dysarthria: number of subjects: 2 | TEAE PT Dyspnoea exertional: (%) of subjects: (0) | TEAE PT Dyspnoea exertional: number of subjects: 0 | TEAE PT Energy increased: (%) of subjects: (3) | TEAE PT Energy increased: number of subjects: 1 | TEAE PT Euphoric mood: (%) of subjects: (3) | TEAE PT Euphoric mood: number of subjects: 1 | TEAE PT Fatigue: (%) of subjects: (3) | TEAE PT Fatigue: number of subjects: 1 | TEAE PT Feeling abnormal: (%) of subjects: (3) | TEAE PT Feeling abnormal: number of subjects: 1 | TEAE PT Feeling drunk: (%) of subjects: (6) | TEAE PT Feeling drunk: number of subjects: 2 | TEAE PT Haematuria: (%) of subjects: (0) | TEAE PT Haematuria: number of subjects: 0 | TEAE PT Headache: (%) of subjects: (6) | TEAE PT Headache: number of subjects: 2 | TEAE PT Hyperacusis: (%) of subjects: (0) | TEAE PT Hyperacusis: number of subjects: 0 | TEAE PT Hyperhidrosis: (%) of subjects: (0) | TEAE PT Hyperhidrosis: number of subjects: 0 | TEAE PT Hyperphagia: (%) of subjects: (3) | TEAE PT Hyperphagia: number of subjects: 1 | TEAE PT Hypoaesthesia oral: (%) of subjects: (3) | TEAE PT Hypoaesthesia oral: number of subjects: 1 | TEAE PT Hypoaesthesia: (%) of subjects: (0) | TEAE PT Hypoaesthesia: number of subjects: 0 | TEAE PT Increased appetite: (%) of subjects: (3) | TEAE PT Increased appetite: number of subjects: 1 | TEAE PT Influenza like illness: (%) of subjects: (0) | TEAE PT Influenza like illness: number of subjects: 0 | TEAE PT Infusion site hypoaesthesia: (%) of subjects: (3) | TEAE PT Infusion site hypoaesthesia: number of subjects: 1 | TEAE PT Left ventricular hypertrophy: (%) of subjects: (3) | TEAE PT Left ventricular hypertrophy: number of subjects: 1 | TEAE PT Lethargy: (%) of subjects: (3) | TEAE PT Lethargy: number of subjects: 1 | TEAE PT Limb discomfort: (%) of subjects: (0) | TEAE PT Limb discomfort: number of subjects: 0 | TEAE PT Logorrhoea: (%) of subjects: (0) | TEAE PT Logorrhoea: number of subjects: 0 | TEAE PT Memory impairment: (%) of subjects: (0) | TEAE PT Memory impairment: number of subjects: 0 | TEAE PT Muscle strain: (%) of subjects: (0) | TEAE PT Muscle strain: number of subjects: 0 | TEAE PT Muscular weakness: (%) of subjects: (3) | TEAE PT Muscular weakness: number of subjects: 1 | TEAE PT Nausea: (%) of subjects: (9) | TEAE PT Nausea: number of subjects: 3 | TEAE PT Paraesthesia: (%) of subjects: (6) | TEAE PT Paraesthesia: number of subjects: 2 | TEAE PT Rhinorrhoea: (%) of subjects: (0) | TEAE PT Rhinorrhoea: number of subjects: 0 | TEAE PT Sedation: (%) of subjects: (3) | TEAE PT Sedation: number of subjects: 1 | TEAE PT Sensory disturbance: (%) of subjects: (0) | TEAE PT Sensory disturbance: number of subjects: 0 | TEAE PT Sinusitis: (%) of subjects: (0) | TEAE PT Sinusitis: number of subjects: 0 | TEAE PT Skin abrasion: (%) of subjects: (3) | TEAE PT Skin abrasion: number of subjects: 1 | TEAE PT Slow speech: (%) of subjects: 0) | TEAE PT Slow speech: number of subjects: 0 | TEAE PT Smoke sensitivity: (%) of subjects: (3) | TEAE PT Smoke sensitivity: number of subjects: 1 | TEAE PT Somnolence: (%) of subjects: (11) | TEAE PT Somnolence: number of subjects: 4 | TEAE PT Tachycardia: (%) of subjects: (0) | TEAE PT Tachycardia: number of subjects: 0 | TEAE PT Throat tightness: (%) of subjects: (3) | TEAE PT Throat tightness: number of subjects: 1 | TEAE PT Time perception altered: (%) of subjects: (3) | TEAE PT Time perception altered: number of subjects: 1 | TEAE PT Urinary tract infection: (%) of subjects: (0) | TEAE PT Urinary tract infection: number of subjects: 0 | TEAE PT Venous injury: (%) of subjects: (0) | TEAE PT Venous injury: number of subjects: 0 | TEAE PT Vertigo: (%) of subjects: (0) | TEAE PT Vertigo: number of subjects: 0 | TEAE PT Vessel puncture site erythema: (%) of subjects: (0) | TEAE PT Vessel puncture site erythema: number of subjects: 0 | TEAE PT Vision blurred: (%) of subjects: (3) | TEAE PT Vision blurred: number of subjects: 1 | TEAE PT Visual impairment: (%) of subjects: (0) | TEAE PT Visual impairment: number of subjects: 0 | TEAE SOC Cardiac disorders: (%) of subjects: (6) | TEAE SOC Cardiac disorders: number of subjects: 2 | TEAE SOC Ear and labyrinth disorders: (%) of subjects: (0) | TEAE SOC Ear and labyrinth disorders: number of subjects: 0 | TEAE SOC Eye disorders: (%) of subjects: (3) | TEAE SOC Eye disorders: number of subjects: 1 | TEAE SOC Gastrointestinal disorders: (%) of subjects: (14) | TEAE SOC Gastrointestinal disorders: number of subjects: 5 | TEAE SOC General disorders and administration site conditions: (%) of subjects: (11) | TEAE SOC General disorders and administration site conditions: number of subjects: 4 | TEAE SOC Immune system disorders: (%) of subjects: (3) | TEAE SOC Immune system disorders: number of subjects: 1 | TEAE SOC Infections and infestations: (%) of subjects: (0) | TEAE SOC Infections and infestations: number of subjects: 0 | TEAE SOC Injury, poisoning and procedural complications: (%) of subjects: (3) | TEAE SOC Injury, poisoning and procedural complications: number of subjects: 1 | TEAE SOC Investigations: (%) of subjects: (3) | TEAE SOC Investigations: number of subjects: 1 | TEAE SOC Metabolism and nutrition disorders: (%) of subjects: (3) | TEAE SOC Metabolism and nutrition disorders: number of subjects: 1 | TEAE SOC Musculoskeletal and connective tissue disorders: (%) of subjects: (3) | TEAE SOC Musculoskeletal and connective tissue disorders: number of subjects: 1 | TEAE SOC Nervous system disorders: (%) of subjects: (40) | TEAE SOC Nervous system disorders: number of subjects: 14 | TEAE SOC Psychiatric disorders: (%) of subjects: (14) | TEAE SOC Psychiatric disorders: number of subjects: 5 | TEAE SOC Renal and urinary disorders: (%) of subjects: (0) | TEAE SOC Renal and urinary disorders: number of subjects: 0 | TEAE SOC Respiratory, thoracic and mediastinal disorders: (%) of subjects: (3) | TEAE SOC Respiratory, thoracic and mediastinal disorders: number of subjects: 1 | TEAE SOC Skin and subcutaneous tissue disorders: (%) of subjects: (3) | TEAE SOC Skin and subcutaneous tissue disorders: number of subjects: 1
